Legend:
Format in all cases: cell-based, Plasmodium falciparum
[1] = test system: F32-ART5 parasite line (0-3h post-invasion ring-stage parasites); experiment: Ring-stage Survival Assay (RSA0-3h), F32-ART5 lineage; details: for RSA0-3h survival rate (median): 700 nM DHA for 6 h, n=3
Protocol: (§1) The Ring-stage Survival Assay (RSA^0-3h) was carried out as described by Witkowski et al^13 using highly synchronous parasite cultures. In brief, 0-3h post-invasion ring-stage parasites were exposed to 700 nM DHA [dihydroartemisinin, obtained from WWARN (www.wwarn.org/research/tools/qaqc)] or its solvent DMSO for 6 h, washed and then cultivated for the next 66 h without drug. Survival rates were assessed microscopically by counting in Giemsa-stained thin smears the proportion of viable parasites that developed into second-generation rings or trophozoites with normal morphology.
(§2) The F32-ART5 samples tested in the Ring-stage Survival Assay (RSA^0-3h) were collected at the time of the 17th, 48th and 122nd pressure cycles (0.04, 2.7 and 9 μM ART), respectively. The F32-TEM sample was collected at the last mock pressure cycle. The RSA0-3h survival rates were determined in triplicate experiments with different batches of red blood cells, and evaluated as above using Giemsa-stained thin smears read by two independent microscopists (B. W. and F. B.-V.). Survival rates were compared using Mann-Whitney U test. […] The RSA^0-3h survival rate of the F32-TEM line was also determined in triplicate experiments (n=3, median 0%, IQR 0-0.05, P=0.81 for #TEM vs. #17, Mann-Whitney U test).

[2] = test system: Cambodian parasite isolates (0-3h post-invasion ring-stage parasites); experiment: Ring-stage Survival Assay (RSA0-3h), culture-adapted Cambodian parasite isolates stratified by K13-propeller allele
Protocol: Fifty clinical P. falciparum isolates from Cambodia (collected in 2010 and 2011) were adapted to in vitro culture as described by Witkowski et al.^45. […] Parasite DNA was extracted from frozen blood aliquots (200 μl) using the Mini blood kit (Qiagen).
as §1

3D7 parasites = experiment: Ring-stage Survival Assay (RSA0-3h), control 3D7 parasites
Protocol: as §1

[3] = test system: F32-TEM line (0-3h post-invasion ring-stage parasites); experiment: Ring-stage Survival Assay (RSA0-3h), F32-TEM line; details: last mock pressure cycle, 700 nM DHA for 6 h, n=3
Protocol: as §1, §2

## C[C@H]1[C@@H](O)O[C@@H]2O[C@@]3(C)CC[C@H]4[C@H](C)CC[C@@H]1[C@@]24OO3 [DHA, dihydroartemisinin]
[1]; F32-ART5 at drug-pressure cycle #17
  RSA0-3h survival rate (median): 0%
[1]; F32-ART5 at drug-pressure cycle #48
  RSA0-3h survival rate (median): 11.7%
[1]; F32-ART5 at drug-pressure cycle #122
  RSA0-3h survival rate (median): 12.8%
[1]; F32-ART5 lineage after appearance of PF3D7_0110400 D56V and PF3D7_1343700 M476I mutations
  RSA0-3h survival rate: 12.8%
[1]; F32-ART5 lineage before appearance of PF3D7_0110400 D56V and PF3D7_1343700 M476I mutations
  RSA0-3h survival rate: less than 0.01%
[2]; isolates with wildtype K13-propeller alleles, n=16
  RSA0-3h survival rate (median): 0.17%
[2]; wildtype K13-propeller, n=17 (FIG. 2), 700 nM DHA for 6 h
  RSA0-3h survival rate (median): 0.16%
[2]; {}
  RSA0-3h survival rate (median): 18.8%
  RSA0-3h survival rates (range): 3.8%-58%
3D7 parasites
  RSA0-3h survival rate: 0.04%
[3]
  RSA0-3h survival rate (median): 0%

— patent US10900093B2, “Molecular marker of plasmodium falciparum artemisinin resistance” (priority 2013, dated 2021)
